According to patent publication US10988449B2, “Isoxazole derivatives as nuclear receptor agonists and uses thereof” (IL DONG PHARMACEUTICAL CO., LTD., priority 2017, dated 2021):
Structures can show the parent of a compound that is named as a salt.

Biological target: T1, human FXR (Homo sapiens, UniProt Q96RI1)
T1 construct: expressed in transfected cells
T1 sequence (Q96RI1 1-486): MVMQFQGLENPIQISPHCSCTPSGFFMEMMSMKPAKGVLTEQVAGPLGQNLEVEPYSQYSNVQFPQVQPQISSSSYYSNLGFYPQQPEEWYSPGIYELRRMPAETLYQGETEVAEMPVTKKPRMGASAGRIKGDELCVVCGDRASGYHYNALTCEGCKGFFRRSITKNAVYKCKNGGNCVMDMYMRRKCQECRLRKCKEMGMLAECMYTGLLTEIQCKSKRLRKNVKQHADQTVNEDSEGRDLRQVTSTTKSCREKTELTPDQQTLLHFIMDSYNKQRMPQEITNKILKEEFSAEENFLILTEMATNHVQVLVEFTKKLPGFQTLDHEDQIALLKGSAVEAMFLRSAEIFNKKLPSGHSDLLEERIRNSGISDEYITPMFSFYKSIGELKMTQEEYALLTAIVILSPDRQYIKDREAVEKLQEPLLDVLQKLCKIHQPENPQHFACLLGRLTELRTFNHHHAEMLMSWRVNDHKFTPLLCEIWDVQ
Test: FXR reporter assay (cellular FXR activities)
Format: cell-based
Details: for EC50: FXR reporter cells, 24 hours incubation, luciferase, read-out: Reporter Cell EC50; for Emax: read-out: Emax (%) (GW4064 Emax = 100%)
Protocol: FXR reporter assay was performed to measure cellular FXR activities of the compounds in the present invention. FXR reporter cells with high expression level of human FXR were seeded into 96-well cell culture plates, and incubated for 1-2 hours at 37° C. under 5% CO2 atmosphere. The invented compounds diluted in DMSO with various concentrations were added to the 96-well cell culture plates, and they were incubated for 24 hours at 37° C. under 5% CO2 atmosphere. After incubation, we calculate EC50 by using luciferase substrate.

SMILES | EC50 [nM] | Emax [%]
O=C(O)c1cccc(C#Cc2c(F)cc(OCc3c(-c4c(Cl)cccc4Cl)noc3C3CC3)cc2Cl)c1 [Compound I-70, 3-((2-chloro-4-((5-cyclopropyl-3-(2,6-dichlorophenyl)isoxazol-4-yl)methoxy)-6-fluorophenyl)ethynyl)benzoic acid] | 60 to 200 | > 100
Cc1c(N)cc(C#Cc2ccc(OCc3c(-c4c(Cl)cccc4Cl)noc3C3CC3)cc2Cl)cc1C(=O)O [Compound I-71, 3-amino-5-((2-chloro-4-((5-cyclopropyl-3-(2,6-dichlorophenyl)isoxazol-4-yl)methoxy)phenyl)ethynyl)-2-methylbenzoic acid] | 200 to 1000 | > 100
CCNC(=O)Nc1cc(C#Cc2ccc(OCc3c(-c4c(Cl)cccc4Cl)noc3C3CC3)cc2Cl)cc(C(=O)O)c1 [Compound I-72, 3-((2-chloro-4-((5-cyclopropyl-3-(2,6-dichlorophenyl)isoxazol-4-yl)methoxy)phenyl)ethynyl)-5-(3-ethylureido)benzoic acid] | 200 to 1000 | > 100
CCOC(=O)N(C)c1cc(C#Cc2ccc(OCc3c(-c4c(Cl)cccc4Cl)noc3C3CC3)cc2Cl)cc(C(=O)O)c1 [Compound I-75] | 20 to 60 | 93
O=C(Nc1cc(C#Cc2ccc(OCc3c(-c4c(Cl)cccc4Cl)noc3C3CC3)cc2Cl)cc(C(=O)O)c1)OC1CC1 [Compound I-76, 3-((2-chloro-4-((5-cyclopropyl-3-(2,6-dichlorophenyl)isoxazol-4-yl)methoxy)phenyl)ethynyl)-5-((cyclopropoxycarbonyl)amino)benzoic acid] | ≤ 20 | > 100
CN(C(=O)OC(C)(C)C)c1cc(C#Cc2ccc(OCc3c(-c4c(Cl)cccc4Cl)noc3C3CC3)cc2Cl)cc(C(=O)O)c1 [Compound I-78, 3-((tert-butoxycarbonyl)(methyl)amino)-5-((2-chloro-4-((5-cyclopropyl-3-(2,6-dichlorophenyl)isoxazol-4-yl)methoxy)phenyl)ethynyl)benzoic acid] | 20 to 60 | 89
O=C(O)c1cc(C#Cc2ccc(OCc3c(-c4c(Cl)cccc4Cl)noc3C3CC3)cc2Cl)cc(N2CCOC2=O)c1 [Compound I-83, 3-((2-chloro-4-((5-cyclopropyl-3-(2,6-dichlorophenyl)isoxazol-4-yl)methoxy)phenyl)ethynyl)-5-(2-oxooxazolidin-3-yl)benzoic acid] | 20 to 60 | 89
O=C(O)c1cc(C#Cc2ccc(OCc3c(-c4c(Cl)cccc4Cl)noc3C3CC3)cc2Cl)cc(C(=O)O)c1 [Compound I-84, 5-((2-chloro-4-((5-cyclopropyl-3-(2,6-dichlorophenyl)isoxazol-4-yl)methoxy)phenyl)ethynyl)isophthalic acid] | 200 to 1000 | 98
CS(=O)(=O)Nc1cc(C#Cc2ccc(OCc3c(-c4c(Cl)cccc4Cl)noc3C3CC3)cc2Cl)cc(C(=O)O)c1 [Compound I-86, 3-((2-chloro-4-((5-cyclopropyl-3-(2,6-dichlorophenyl)isoxazol-4-yl)methoxy)phenyl)ethynyl)-5-(methylsulfonamido)benzoic acid] | 60 to 200 | 100
O=C(O)c1cccc(C#Cc2ccc(OCc3c(-c4ccccc4C(F)(F)F)noc3C3CC3)cc2Cl)c1 [Compound I-87, 3-((2-chloro-4-((5-cyclopropyl-3-(2-(trifluoromethyl)phenyl)isoxazol-yl)methoxy)phenyl)ethynyl)benzoic acid] | 200 to 1000 | > 100
O=C(O)c1cccc(C#Cc2ccc(OCc3c(-c4ccccc4OC(F)(F)F)noc3C3CC3)cc2Cl)c1 [Compound I-88, 3-((2-chloro-4-((5-cyclopropyl-3-(2-(trifluoromethoxy)phenyl)isoxazol-4-yl)methoxy)phenyl)ethynyl)benzoic acid] | 200 to 1000 | 97
CN(C)CCn1ccc2c(C#Cc3ccc(OCc4c(-c5c(Cl)cccc5Cl)noc4C4CC4)cc3Cl)cc(C(=O)O)cc21 [Compound I-92, 4-((2-chloro-4-((5-cyclopropyl-3-(2,6-dichlorophenyl)isoxazol-4-yl)methoxy)phenyl)ethynyl)-1-(2-(dimethylamino)ethyl)-1H-indole-6-carboxylic acid] | 20 to 60 | 87
CC(C)NCCCn1ccc2c(C#Cc3ccc(OCc4c(-c5c(Cl)cccc5Cl)noc4C4CC4)cc3Cl)cc(C(=O)O)cc21 [Compound I-93, 4-((2-chloro-4-((5-cyclopropyl-3-(2,6-dichlorophenyl)isoxazol-4-yl)methoxy)phenyl)ethynyl)-1-(3-(isopropylamino)propyl)-1H-indole-6-carboxylic acid] | 200 to 1000 | 82
O=C(O)c1cc(C#Cc2ccc(OCc3c(-c4c(Cl)cccc4Cl)noc3C3CC3)cc2Cl)c2ccn(CCN3CCOCC3)c2c1 [Compound I-95, 4-((2-chloro-4-((5-cyclopropyl-3-(2,6-dichlorophenyl)isoxazol-4-yl)methoxy)phenyl)ethynyl)-1-(2-morpholinoethyl)-1H-indole-6-carboxylic acid hydrochloride] | 20 to 60 | > 100
CC(C)(O)Cn1ccc2c(C#Cc3ccc(OCc4c(-c5c(Cl)cccc5Cl)noc4C4CC4)cc3Cl)cc(C(=O)O)cc21 [Compound I-98, 4-((2-chloro-4-((5-cyclopropyl-3-(2,6-dichlorophenyl)isoxazol-4-yl)methoxy)phenyl)ethynyl)-1-(2-hydroxy-2-methylpropyl)-1H-indole-6-carboxylic acid] | 20 to 60 | > 100

Now from value to compound:

EC50 [nM] | Emax [%] | SMILES
200 to 1000 | > 100 | CC(=O)Nc1cc(C#Cc2ccc(OCc3c(-c4c(Cl)cccc4Cl)noc3C3CC3)cc2Cl)cc(C(=O)O)c1 [Compound I-73, 3-acetamido-5-((2-chloro-4-((5-cyclopropyl-3-(2,6-dichlorophenyl)isoxazol-4-yl)methoxy)phenyl)ethynyl)benzoic acid]
≤ 20 | > 100 | CCOC(=O)Nc1cc(C#Cc2ccc(OCc3c(-c4c(Cl)cccc4Cl)noc3C3CC3)cc2Cl)cc(C(=O)O)c1 [Compound I-74, 3-((2-chloro-4-((5-cyclopropyl-3-(2,6-dichlorophenyl)isoxazol-4-yl)methoxy)phenyl)ethynyl)-5-((ethoxycarbonyl)amino)benzoic acid]
200 to 1000 | > 100 | O=C(Nc1cc(C#Cc2ccc(OCc3c(-c4c(Cl)cccc4Cl)noc3C3CC3)cc2Cl)cc(C(=O)O)c1)OCCO [Compound I-81, 3-((2-chloro-((5-cyclopropyl-3-(2,6-dichlorophenyl)isoxazol-4-yl)methoxy)phenyl)ethynyl)-5-(((2-hydroxyethoxy)carbonyl)amino)benzoic acid]
200 to 1000 | 75 | O=C(O)c1cc(C#Cc2ccc(OCc3c(-c4c(Cl)cccc4Cl)noc3C3CC3)cc2Cl)c2nc[nH]c2c1 [Compound I-90, 4-((2-chloro-4-((5-cyclopropyl-3-(2,6-dichlorophenyl)isoxazol-4-yl)methoxy)phenyl)ethynyl)-1H-benzo[d]imidazole-6-carboxylic acid]
60 to 200 | > 100 | O=C(O)c1cc(C#Cc2ccc(OCc3c(-c4c(Cl)cccc4Cl)noc3C3CC3)cc2Cl)c2ccn(Cc3ccncc3)c2c1 [Compound I-94, 4-((2-chloro-4-((5-cyclopropyl-3-(2,6-dichlorophenyl)isoxazol-4-yl)methoxy)phenyl)ethynyl)-1-(pyridin-4-ylmethyl)-1H-indole-6-carboxylic acid]
≤ 20 | 98 | COC(Cn1ccc2c(C#Cc3ccc(OCc4c(-c5c(Cl)cccc5Cl)noc4C4CC4)cc3Cl)cc(C(=O)O)cc21)OC [Compound I-96, 4-((2-chloro-4-((5-cyclopropyl-3-(2,6-dichlorophenyl)isoxazol-4-yl)methoxy)phenyl)ethynyl)-1-(2,2-dimethoxyethyl)-1H-indole-6-carboxylic acid]
≤ 20 | 94 | O=C(O)c1cc(C#Cc2ccc(OCc3c(-c4c(Cl)cccc4Cl)noc3C3CC3)cc2Cl)c2ccn(CCO)c2c1 [Compound I-97, 4-((2-chloro-4-((5-cyclopropyl-3-(2,6-dichlorophenyl)isoxazol-4-yl)methoxy)phenyl)ethynyl)-1-(2-hydroxyethyl)-1H-indole-6-carboxylic acid]
60 to 200 | > 100 | O=C(O)c1cc(C#Cc2ccc(OCc3c(-c4c(Cl)cccc4Cl)noc3C3CC3)cc2Cl)cc2c1OCC2 [Compound I-100, 5-((2-chloro-4-((5-cyclopropyl-3-(2,6-dichlorophenyl)isoxazol-4-yl)methoxy)phenyl)ethynyl)-2,3-dihydrobenzofuran-7-carboxylic acid]
≤ 20 | 97 | O=C(O)c1cc(C#Cc2ccc(OCc3c(-c4c(Cl)cccc4Cl)noc3C3CC3)cc2Cl)cc2[nH]ccc12 [Compound I-101, 6-((2-chloro-4-((5-cyclopropyl-3-(2,6-dichlorophenyl)isoxazol-4-yl)methoxy)phenyl)ethynyl)-1H-indole-4-carboxylic acid]
